Source: US20180169047A1, “AMINO ACID COMPOSITIONS AND METHODS FOR THE TREATMENT OF MUSCLE DISEASES AND DISORDERS” (AXCELLA HEALTH INC., priority 2016, published 2018)

Columns and labels:
C2C12 myotubes = experiment: Myotube growth assay: myotube area in C2C12 myotubes; assay type: cell-based, murine; set-up: key to GROWTH: statistically significant assay result: statistically significant assay results between 2X and 5X doses; ns - not significant; NT - not tested; conditions: for myotube growth dose response, Avg myotube area normalized to nuclear count: untreated = 1.000; for GROWTH: statistically significant assay result: between 2X and 5X doses, compared to untreated control
Source text: Myotubes are multi-nucleated and elongated cells that express master regulators of skeletal muscle gene expression including MyoD and Myogenin. Myotubes are formed by differentiating myoblasts (muscle progenitor cells) for approximately 1 week. Once formed, myotubes size can be promoted (e.g. insulin) or inhibited (e.g. myostatin) with various molecules in order to assess effects on muscle size in vitro. C2C12 cells are commonly-used murine myogenic cells that upon differentiation form myotubes. C2C12 myotubes were used to test whether specific amino acid compositions can promote growth in vitro.
C2C12 murine myoblast cells (ATCC CRL-1772) were seeded on day 0 at 1.0E4 cells per well in collagen I coated 96-well optical polymer microplates (ThermoFisher) in Dulbecco's Modified Eagle Medium (DMEM, Corning) supplemented with 10% heat inactivated fetal bovine serum (HI-FBS, Atlanta Biologicals) and 0.2% Primocin (InVivoGen) and incubated overnight at 37° C., 5% CO2. On day 1, media was washed and differentiation media (DMEM supplemented with 2% horse serum) was added to the cells and fresh differentiation media was also applied on Day 3. On Day 6, cells were washed with amino acid-free DMEM and then treated with basal growth media containing 0.2% dialyzed FBS and all amino acids at 0.25× concentrations found in plasma based on values reported in the Human Metabolome Database (HMDB).
Fresh growth media and AA treatments were applied a second time on Day 8. On day 10, media was removed and cells were incubated in pre-warmed 4% Paraformaldehyde in PBS for 12 mins at room temperature and then washed 3× in PBS. Immunostaining with MHC (MF-20, University of Iowa Developmental Hybridoma Studies bank) was performed according to cell signaling general immunofluorescence protocol. Briefly, fixed cells were incubated in blocking buffer (5% normal goat serum 0.3% triton PBS) for 30-60 minutes, and then incubated overnight at 4° C. in primary antibody 1:1000 in antibody dilution buffer (1% BSA 0.3% triton in PBS). The next day the plate was equilibrated to room temperature, washed 3 times for 5 minutes in room temperature PBS and then with secondary antibody (Fab′ anti-mouse Alexa488, 1:2000) in antibody dilution buffer for 1-2 hours. Cells were washed 2 times for 5 minutes, incubated in Hoechst stain (Mol Probes 1:4000) for 10 minutes at room temperature, and washed an additional 2 times five minutes each in PBS. Molecular device HCS was used for image acquisition and analysis. Imaging was performed with a 10× wide field objective at both GFP and UV channels (FITC and DAPI) and analysis was performed using a modified version of the angiogenesis module in the MetaExpress Software measuring average total myotube area, myotube breadth, total nuclear counts, fused nuclear counts, and unfused nuclear counts.

mTORC1 = mTORC1 activity assay: rpS6 phosphorylation (AlphaScreen SureFire) in C2C12 myotubes; assay type: cell-based, mouse; set-up: key to mTOR: statistically significant assay result: statistically significant assay results between 2X and 5X doses; ns - not significant; NT - not tested; conditions: for Avg fold change of intracellular rpS6 phosphorylation (P-rpS6) compared to untreated cells: C2C12 myotubes, 30 min, normalized to total protein; for mTOR: statistically significant assay result: between 2X and 5X doses, compared to untreated control
Source text: Metabolism is controlled by the mTORC1 signaling complex, an essential protein kinase that regulates cellular processes such as protein synthesis and autophagy. A number of distinct signals control mTORC1 activity, including amino acids and growth factors like insulin, and proper regulation is necessary for the maintenance of muscle mass. Dysregulation of mTORC1 activity is associated with muscle wasting (atrophy) in many diseases, and conversely, addition of muscle mass (hypertrophy) requires protein synthesis-inducing mTORC1 signaling. The ability of different amino acids to induce mTORC1 signaling in myotubes was assessed using an alpha-elisa screen for phosphorylated ribosomal protein S6 (P-rpS6), an important substrate downstream of mTORC1 involved in promoting protein synthesis.
In this example, murine muscle cells were incubated with a composition including amino acids and assessed for mTORC1 activation. C2C12, mouse muscle cells, were obtained from ATCC (CRL-1772, Manassas, VA). The cells were seeded on day 0 at 1.0E4 cells per well in 96-well TC-treated microplates (Corning, Corning, NY) in Dulbecco's Modified Eagle Medium (DMEM, Corning) supplemented with 10% fetal bovine serum (Corning) and 0.2% Primocin (InVivoGen, San Diego, Calif.) and incubated for 48 hours at 37° C., 5% CO2. On day 2, the medium was changed to DMEM (Corning) supplemented with 2% horse serum (Horse Serum, New Zealand origin, ThermoFisher, Waltham, MA) and 0.2% Primocin. On day 5, the medium was replaced with fresh DMEM supplemented with 2% horse serum and 0.2% Primocin.
On day 7, the DMEM supplemented with 2% horse serum and 0.2% Primocin was replaced with amino acid free DMEM (US Biologicals, Salem, Mass.) containing a defined custom amino acid concentration based on 0.5× the mean physiological concentrations in blood based on values published in the Human Metabolome Database (HMDB (Wishart DS, Tzur D, Knox C, et al., HMDB: the Human Metabolome Database. Nucleic Acids Res. 2007 January; 35 (Database issue):D521-6. 17202168), with 25 mM Glucose, 1 mM Sodium Pyruvate and incubated for 2 hours at 37° C., 5% CO2. Next, the cell medium was replaced with amino acid free DMEM (US Biologicals, Salem, Mass.) containing a defined custom amino acid concentration based on 0.5× the mean physiological concentrations in blood based on values published in the HMDB and a dose curve of defined amino acid compositions listed in Table 5 at 4 doses relative to plasma levels (1×, 2×, 5× and 10×; as defined by mean amino acid concentrations in the HMDB database). Combinations containing N-acetylcysteine were dosed with 0.2 mM. Cells were treated for 30 min at 37° C., 5% CO2. After treatment, the cells were washed lx in 100uL cold phosphate-buffered saline 1×, pH 7.2 (PBS, ThermoFisher). For the detection of the intracellular rpS6 phosphorylation, the AlphaScreen SureFire cellular kinase assay kit (rpS6 ([…]) and the AlphaScreen protein A kit (PerkinElmer, Waltham, Mass.) were used.
Data are presented as fold change of intracellular rpS6 phosphorylation in C2C12 myotubes normalized to the total protein amount compared to untreated cells. […] Statistical significance was determined by one-way ANOVA for each composition dose relative to untreated.

[1] = system: C2C12 murine myoblast cells; experiment: Myogenesis assay: myotube differentiation of C2C12 myoblasts, MHC immunostaining; assay type: cell-based; set-up: key to MYOGENESIS: statistically significant assay result: statistically significant assay results between 2X and 5X doses; ns - not significant; NT - not tested; conditions: for myogenesis dose response, Avg fold-change to untreated: C2C12 myoblasts differentiated 4 days
Source text: Myogenesis is the process of forming skeletal muscle fibers (myofibers) which contain the minimal contractile units (sarcomeres) responsible for force transduction and load bearing in higher eukaryotes. During development single nucleated myogenic cells fuse, differentiate, and induce expression of the cytoskeletal complexes required for muscle contraction. A highly similar process is induced in response to muscle injury where satellite cells, or skeletal muscle stem cells, are activated, differentiate and fuse with damaged myofibers, thereby contributing myonuclei and supporting muscle repair. C2C12 cells are murine myogenic cells that, upon differentiation, fuse to form multi-nucleated myotubes (primitive myofibers) that express master regulators of muscle-specific gene expression, for example myosin heavy chain, a critical component of sarcomeres. C2C12 cells were selected as a model of myogenesis and used to test whether specific amino acid compositions would promote formation of myotubes and expression of the myotube-specific marker myosin heavy chain.
C2C12 murine myoblast cells were obtained from ATCC (CRL-1772) and seeded on day 0 at 1.0E4 cells per well in collagen I coated 96-well optical polymer microplates (ThermoFisher) in Dulbecco's Modified Eagle Medium (DMEM, Corning) supplemented with 10% heat inactivated fetal bovine serum (HI-FBS, Atlanta Biologicals) and 0.2% Primocin (InVivoGen) and incubated overnight at 37° C., 5% CO2. […] Cells were differentiated for 4 days at 37° C., 5% CO2 with a media replenishment and an additional amino acid composition or control treatment on Day 3. On day 5, the media was removed and cells were incubated in pre-warmed 4% Paraformaldehyde in PBS for 12 mins at room temperature and then washed 3× in PBS.
Immunostaining with MHC (MF-20, University of Iowa Developmental Hybridoma Studies bank) was performed according to cell signaling general immunofluorescence protocol. Briefly, fixed cells were incubated in blocking buffer (5% normal goat serum 0.3% triton PBS) for 30 to 60 minutes, and then incubated overnight at 4° C. in primary antibody 1:1000 in antibody dilution buffer (1% BSA 0.3% triton in PBS). The next day the plate was equilibrated to room temperature, washed 3 times for 5 minutes in room temperature PBS and then with secondary antibody (Fab' anti-mouse Alexa488, 1:2000) in antibody dilution buffer for 1-2 hours. Cells were washed two times for 5 minutes, incubated in Hoechst stain (Mol Probes 1:4000) for 10 minutes at room temperature, and washed an additional two times for five minutes each in PBS. Molecular device HCS was used for image acquisition and analysis. Imaging was performed with a 10× wide field objective at both GFP and UV channels (FITC and DAPI) and analysis was performed using a custom module in the MetaExpress Software measuring average FITC intensity, integrated FITC intensity, and nuclear counts.
The data is the average of 3 independent experiments.

[2] = C2C12 myotubes, dose 1.25X relative to plasma levels
[3] = C2C12 myotubes, dose 2.5X relative to plasma levels
[4] = C2C12 myotubes, dose 5X relative to plasma levels
[5] = C2C12 myotubes, dose 10X relative to plasma levels
[6] = dose 1X relative to plasma levels
[7] = dose 2X relative to plasma levels
[8] = dose 5X relative to plasma levels
[9] = dose 10X relative to plasma levels

| Compound | myotube growth dose response, Avg myotube area normalized to nuclear count (C2C12 myotubes; [2]) | myotube growth dose response, Avg myotube area normalized to nuclear count (C2C12 myotubes; [3]) | myotube growth dose response, Avg myotube area normalized to nuclear count (C2C12 myotubes; [4]) | myotube growth dose response, Avg myotube area normalized to nuclear count (C2C12 myotubes; [5]) | GROWTH: statistically significant assay result (C2C12 myotubes) | Avg fold change of intracellular rpS6 phosphorylation (P-rpS6) compared to untreated cells (mTORC1; [6]) | Avg fold change of intracellular rpS6 phosphorylation (P-rpS6) compared to untreated cells (mTORC1; [7]) | Avg fold change of intracellular rpS6 phosphorylation (P-rpS6) compared to untreated cells (mTORC1; [8]) | Avg fold change of intracellular rpS6 phosphorylation (P-rpS6) compared to untreated cells (mTORC1; [9]) | mTOR: statistically significant assay result (mTORC1) | area of myotubes in the culture well (in words) (C2C12 myotubes; C2C12 myotubes, across two experiments) | myogenesis dose response, Avg fold-change to untreated ([1]; dose 1.25X relative to HMDB plasma levels) | myogenesis dose response, Avg fold-change to untreated ([1]; dose 2.5X relative to HMDB plasma levels) | myogenesis dose response, Avg fold-change to untreated ([1]; dose 5X relative to HMDB plasma levels) | myogenesis dose response, Avg fold-change to untreated ([1]; dose 10X relative to HMDB plasma levels) | MYOGENESIS: statistically significant assay result ([1]; between 2X and 5X doses, compared to untreated control) |
| --- | --- | --- | --- | --- | --- | --- | --- | --- | --- | --- | --- | --- | --- | --- | --- | --- |
| CC(=O)N[C@@H](CS)C(=O)O [Nac, N-acetylcysteine] | 1.121 | 1.036 | 1.153 | 1.267 | ns | 0.9198 fold change | 0.8626 fold change | 0.8741 fold change | 0.9485 fold change | ns | – | – | – | – | – | – |
| NC(=O)CC[C@H](N)C(=O)O [Q, glutamine] | 1.235 | 1.202 | 1.075 | 1.077 | ns | 1.052 fold change | 0.9176 fold change | 0.8748 fold change | 0.8139 fold change | ns | no effect or were inhibitory | 1.127 fold-change | 1.066 fold-change | 1.087 fold-change | 1.041 fold-change | ns |
